In EP0702683B1, “06-SUBSTITUTED GUANINE DERIVATIVES, A PROCESS FOR THEIR PREPARATION AND THEIR USE IN TREATING TUMOUR CELLS” (Cancer Research Technology Limited, priority 1993, dated 1994):
Like-named read-outs stand apart in the source and are kept apart here.

Tests used:
ATase [1] = molecular target: T1, ATase (Homo sapiens, UniProt P16455); assay: In vitro ATase inactivation assay with purified recombinant human ATase; assay type: biochemical; set-up: made in house
T1 sequence (P16455 1-207): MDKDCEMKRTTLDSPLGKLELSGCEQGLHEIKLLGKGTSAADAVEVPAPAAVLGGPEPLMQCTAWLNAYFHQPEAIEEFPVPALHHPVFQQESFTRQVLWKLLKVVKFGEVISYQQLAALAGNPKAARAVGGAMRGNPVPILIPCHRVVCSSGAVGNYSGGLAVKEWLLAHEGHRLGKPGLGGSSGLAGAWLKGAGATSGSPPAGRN
Description: The cDNA cloning and overexpression of the human ATase has been reported previously^23. Purification of the recombinant proteins was achieved either by affinity chromatography through a DNA-cellulose column as described by Wilkinson et al.,^25, 26, or by DEAE-cellulose ion-exchange chromatography. For the latter, the ATase protein was partially purified by ammonium sulphate precipitation (30 - 60%) and dialysed against 10 mM Tris-HCl pH 7.5, 1 mM DTT, 2 mM EDTA, 10% glycerol, before loading on a DEAF-cellulose column. The ATase was then eluted with a 0-0.1 M NaCl gradient.
Compounds to be tested were dissolved in DMSO to a final concentration of 10 mM and diluted just before use in buffer I containing 1 mg/ml bovine serum albumin (IBSA). Recombinant ATase was diluted in IBSA and titrated in order that the reaction be conducted under ATase, and not substrate, limiting conditions. In each assay, fixed amounts of ATase (60-75 fmol) were incubated with varying amounts of 0^6-benzylguanine, or test compound in a total volume of 200 µl of IBSA containing 10 µg of calf thymus DNA at 37°C for 1 hour. The [^3H]-methylated-DNA substrate (100 µl containing 6.7 µg of DNA and 100 fmol of 0^6-methylguanine) was added and incubation continued at 37° for 1 hour, until the reaction was completed. Following acid hydrolysis of the DNA as previously described^21 the [^3H]-methylated protein was recovered and quantitated by liquid scintillation counting. Samples were typically assayed in duplicate and experiments repeated several times. I50 is the concentration of inactivator required to produce a 50% reduction in ATase activity.

[2] = Stability of inactivators at 37°C (spectrophotometric half life); assay type: physicochemical
Description: Inactivators (10mM in DMSO) were diluted to 0.1mM in prewarmed degassed buffer I (1mM EDTA, 50mM Tris pH 8.3) or PBS (pH 7-7.2). […] Samples were immediately transferred to a CARY13 spectrophotometer (cuvette block held at 37°C) and scanned at an appropriate wavelength (according to the spectral properties of the compound) at 3-10 minute intervals for up to 80 hours. The results were expressed as percentage absorbance change versus time and T1/2 values (half life) extrapolated from this.

Raji cells [3] = assay: Sensitization of Raji cells to BCNU (XTT assay); assay type: cell-based, human; details: BCNU, 2 hour pretreatment; for Raji sensitization (D90.^C/D90.^I) 0.5µM: inactivator 0.5µM; for Raji sensitization (D90.^C/D90.^I) 1.0µM: inactivator 1.0µM; for Raji sensitization (D90.^C/D90.^I) O.1µM: inactivator O.1µM
Description: (§1) Following a 2 hour incubation at 37°C, medium containing either increasing doses of BCNU, temozolomide or equivalent vehicle was added and the cells allowed to grow for 6 days. At this time XTT solution was added and the cells incubated for a further 4 hours at 37°C. The resulting red/orange formazan reaction product was quantified by measuring absorption at 450nm on a microtitre platereader.

ATase [4] = molecular target: T1, ATase; assay: Inactivation of ATase activity in Raji cells; assay type: cell-based; set-up: endogenous in cells; host or cells: Raji; details: Raji cells, 2 hours at 37°C; read-out: Raji I50
Description: (§2) Mammalian cells were cultured under standard conditions. For example, Raji (a human lymphoblastoid cell line from a Burkitt's lymphoma) cells were grown in suspension culture in RPMI medium supplemented with 10% horse serum. A375M cells are human melanoma cells from which the xenografts described below were established following subcutaneous injection into nude mice: WiDr cells are a human colon carcinoma cell line: Hamster+120 cells are a mitozolomide-selected subline of a Chinese hamster lung fibroblast V79 cell line called RJKO: Yoshida cells are a rat carcinosarcoma cell line and YRbus is a busulphan resistant subline thereof: XP cells are an SV40-transformed fibroblast cell line originally from the skin of a Xeroderma pigmentosum patient, pHMGhAT2b cells are a clone of these cells that have been transfected with a mammalian cell expression vector containing the human ATase cDNA and pHMGla cells are a clone that have been transfected with the expression vector only (i.e. one not containing the human ATase cDNA). Cell pellets were resuspended in cold (4°C) buffer I containing 2 µg/ml leupeptin and sonicated for 10 seconds at 12 µ peak to peak distance. After cooling in ice, the cells were sonicated for a further 10 seconds at 18 µ. Immediately after sonication, 0.01 volumes of 8.7 mg/ml phenylmethanesulphonylfluoride in ethanol was added and the sonicates centrifuged at 15 000 g for 10 minutes at 4°C to pellet cell debris. The supernatant was kept for determination of ATase activity (see below).
(§3) Cells were diluted to 10^6/ml in culture medium containing either the appropriate concentration of inactivator or an equivalent volume of vehicle (DMSO). Following incubation at 37°C for 2 hours the cells were harvested by centrifugation, washed twice with PBS and the resulting cell pellets (between 1-2 x 10^7 per pellet) stored at -20°C.

A375M cells = assay: Sensitization of A375M cells to BCNU (MTT assay); assay type: cell-based, human; details: for A375M sensitization (D50.^C/D50.^I) 1.0uM: inactivator 1.0uM 2 hours before; for A375M sensitization (D50.^C/D50.^I) 0.5uM: inactivator 0.5uM 2 hours before; for A375M sensitization (D50.^C/D50.^I) 5.0uM: inactivator 5.0uM 2 hours before
Description: Sensitization of A375M cells to the cytotoxic effects of BCNU was analysed by MTT assay ^24 differing from the XTT assay described above as follows. […] After 6 days MTT solution (4mg/ml) was added and cells incubated for 3 hours at 37°C. Medium was aspirated and the resulting purple formazan crystals were solubilised in DMSO (120μl) and cell viability was quantified by measuring absorption at 540nm using a microtitre plate reader.

[5] = Inactivator toxicity in bone marrow cells (GM-CFC colonies, inactivator alone); assay type: cell-based, human; details: human, bone marrow gm-cfc, inactivator 10uM, read-out: No. of colonies as % of control (ie no inactivator)
Source text: For the granulocyte/macrophage colony-forming cell (GM-CFC) assay primary human bone marrow samples were obtained from patients undergoing cardiothoracic surgery. […] The colonies represented precursor cells of the granulocyte/macrophage lineage (huGM-CFC). […]

[6] = Toxicity of inactivator in combination with BCNU in xenograft-bearing mice (survival); assay type: in vivo, nude mice; details: mouse, in vivo, ip; in combination with BCNU, Figs. 9-13; read-out: death of treated animals
Description: 0X6 OPT, England (OLAC mice). […] For this reason lower doses were administered.
Xenograft tumour measurements were taken every 1-2 days by workers using digital calipers. Tumour volume was calculated using the formula (h x w x 1) π/6. The experimental animals were also weighed every 1-2 days. Measurements continued until tumours in the control animals reached the maximum allowable volume (i.e. 1cm x 1cm x 1cm).

human bone marrow cells = assay: Sensitization of bone marrow cells to temozolomide (GM-CFC assay); assay type: cell-based; details: three samples tested (BeG: all three; B.4205: two of these), Fig. 14, in words
Source text: For the granulocyte/macrophage colony-forming cell (GM-CFC) assay primary human bone marrow samples were obtained from patients undergoing cardiothoracic surgery. […] The colonies represented precursor cells of the granulocyte/macrophage lineage (huGM-CFC). Survival was expressed as a % of the number of colonies at zero dose temozolomide.

Raji cells [7] = assay: Sensitization of Raji cells to temozolomide (XTT assay); assay type: cell-based, human; details: inactivator 0.1 to 5.0µM, Figures 3 and 4, in words
Description: as §1

ATase [8] = molecular target: T2, ATase (Rattus norvegicus, UniProt P24528); assay: Inactivation of ATase activity in Yoshida cells; assay type: cell-based
T2 construct: endogenous in cells; host or cells: Yoshida
T2 sequence (P24528 1-209): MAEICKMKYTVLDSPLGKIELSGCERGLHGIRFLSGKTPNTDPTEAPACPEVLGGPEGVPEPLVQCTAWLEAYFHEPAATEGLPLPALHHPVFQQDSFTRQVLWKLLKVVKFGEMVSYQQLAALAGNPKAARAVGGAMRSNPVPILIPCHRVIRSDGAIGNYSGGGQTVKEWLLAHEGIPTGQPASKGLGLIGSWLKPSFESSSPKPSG
Description: as §2
as §3, with “-20°C. ATase activity was determined as described above, in duplicate sonicated cell extracts and expressed as the percentage activity remaining based on that present in the untreated controls (for example 350-450 fm/mg in Raji cells).” for “-20°C.”

[9] = 0.1mM in PBS (pH 7-7.2), read-out: T1/2(h) in PBS (converted)
[10] = 0.1mM in buffer I (1mM EDTA, 50mM Tris pH 8.3), read-out: T1/2(h) in Buffer I (converted)

Row | Compound | IC50 (ATase [1]) | half-life at 100 µM [2, 9] | Raji sensitization (D90.^C/D90.^I) 0.5µM (Raji cells [3]) | Raji sensitization (D90.^C/D90.^I) 1.0µM (Raji cells [3]) | Raji sensitization (D90.^C/D90.^I) O.1µM (Raji cells [3]) | IC50 (ATase [4]) | A375M sensitization (D50.^C/D50.^I) 1.0uM (A375M cells) | half-life at 100 µM [2, 10] | A375M sensitization (D50.^C/D50.^I) 0.5uM (A375M cells) | A375M sensitization (D50.^C/D50.^I) 5.0uM (A375M cells) | viability at 216 h, 10 µM ([5]; Patient A) | viability at 216 h, 10 µM ([5]; Patient B) | viability at 216 h, 10 µM ([5]; Patient C) | viability at 216 h, 10 µM ([5]; Patient D) | viability at 216 h, 10 µM ([5]; Patient E) | mortality [6] | sensitization of GM-CFCs in human bone marrow samples to the toxic effects of temozolomide (human bone marrow cells) | dose response of sensitization of Raji cells to temozolomide (Raji cells [7]) | IC50 (ATase [8])
1 | Cc1ccsc1COc1nc(N)nc2[nH]cnc12 [B.4222, O^6-(3-methylthenyl)guanine] | 650 nM | > 16 h | 1.9 | 2.1 | 1.4 | 470 nM | 1.4 |  |  |  |  |  |  |  |  |  |  |  | 
2 | Nc1nc(OCc2cc3ccccc3s2)c2nc[nH]c2n1 [B.4226, O^6-(2-benzo[b]thienylmethyl)guanine] | 30 nM | 6.7 h | 1.6 | 10.0 | 1.6 | 60 nM |  | 9.7 h | 3.8 | 4.5 |  |  |  |  |  |  |  |  | 
3 | COC(=O)c1ccc(COc2nc(N)nc3[nH]cnc23)o1 [B.4229, O^6-(5-methoxycarbonylfurfuryl)guanine] | 90 nM | > 16 h | 2.1 | 2.5 | 1.2 | 250 nM | 1.8 |  |  |  |  |  |  |  |  |  |  |  | 
4 | Nc1nc(OCc2ccc(C(=O)O)o2)c2nc[nH]c2n1 [B.4234, O^6-(5-carboxyfurfuryl)guanine] | 60000 nM | > 16 h | 1.0 | 1.0 | 1.0 | > 1000 nM | 0.8 |  |  |  |  |  |  |  |  |  |  |  | 
5 | Nc1nc(OCc2ccccc2)c2nc[nH]c2n1 [O^6-benzylguanine, reference compound] |  | > 16 h | *2.0 ± 0.4 | *3.8 ± 1.8 | *1.9 ± 0.7 |  | 2.3 | > 64 h | 3.1 | 4.2 | 95% | 46% | 88% | 88% | 89% | ≤ 70% | sensitised | clear dose response | 140 nM
